Patent US7585883B2, “Substituted pyridines and their uses” (Rigel Pharmaceuticals, Inc., priority 2004, dated 2009)

Assays:
[1] = tested on: cultured human mast cells (CHMC); experiment: CHMC low cell density IgE activation: tryptase assay (IgE-induced degranulation); assay type: cell-based; settings: anti-IgE stimulation, tryptase release, read-out: IgE (first symbol of IgE/Iono): IC50 of IgE-induced degranulation
Method: Inhibition of degranulation was measured at both low and high cell density by quantifying the release of the granule specific factors tryptase, histamine and hexosaminidase. Inhibition of release and/or synthesis of lipid mediators was assessed by measuring the release of leukotriene LTC4 and inhibition of release and/or synthesis of cytokines was monitored by quantifying TNF-α, IL-6 and IL-13. Tryptase and hexosaminidase were quantified using fluorogenic substrates as described in their respective examples. Histamine, TNFα, IL-6, IL-13 and LTC4 were quantified using the following commercial ELISA kits: histamine (Immunotech #2015, Beckman Coulter), TNFα (Biosource #KHC3011), IL-6 (Biosource #KMC0061), IL-13 (Biosource #KHC0132) and LTC4 (Cayman Chemical #520211). The protocols of the various assays are provided below.
7.2.7 CHMC Low Cell Density IgE Activation: Tryptase and LTC4 Assays
(§1) To duplicate 96-well U-bottom plates (Costar 3799) add 65 ul of compound dilutions or control samples that have been prepared in MT [137 mM NaCl, 2.7 mM KCl, 1.8 mM CaCl2, 1.0 mM MgCl2, 5.6 mM Glucose, 20 mM Hepes (pH 7.4), 0.1% Bovine Serum Albumin, (Sigma A4503)] containing 2% MeOH and 1% DMSO. Pellet CHMC cells (980 rpm, 10 min) and resuspend in pre-warmed MT. Add 65 ul of cells to each 96-well plate. Depending on the degranulation activity for each particular CHMC donor, load 1000-1500 cells/well. Mix four times followed by a 1 hr incubation at 37° C. During the 1 hr incubation, prepare 6× anti-IgE solution [rabbit anti-human IgE (1 mg/ml, Bethyl Laboratories A80-109A) diluted 1:167 in MT buffer]. Stimulate cells by adding 25 ul of 6× anti-IgE solution to the appropriate plates. Add 25 ul MT to un-stimulated control wells. Mix twice following addition of the anti-IgE. Incubate at 37° C. for 30 minutes. During the 30 minute incubation, dilute the 20 mM tryptase substrate stock solution [(Z-Ala-Lys-Arg-AMC 2TFA; Enzyme Systems Products, #AMC-246)] 1:2000 in tryptase assay buffer [0.1 M Hepes (pH 7.5), 10% w/v Glycerol, 10 uM Heparin (Sigma H-4898) 0.01% NaN3]. Spin plates at 1000 rpm for 10 min to pellet cells. Transfer 25 ul of supernatant to a 96-well black bottom plate and add 100 ul of freshly diluted tryptase substrate solution to each well. Incubate plates at room temperature for 30 min. Read the optical density of the plates at 355 nm/460 nm on a spectrophotometric plate reader.

[2] = tested on: cultured human mast cells (CHMC); experiment: CHMC low cell density ionomycin activation: tryptase assay (ionomycin-induced degranulation); assay type: cell-based; settings: ionomycin 2 μM final, tryptase release, read-out: Iono (second symbol of IgE/Iono): IC50 of ionomycin-induced degranulation
Method: as §1
To confirm that many of the pyridine compounds of the invention exert their inhibitory activity by blocking or inhibiting the early IgE receptor signal transduction cascade, several of the compounds were tested in cellular assays for ionomycin-induced degranulation, as described below.
Assays for ionomycin-induced mast cell degranulation were carried out as described for the CHMC Low Density IgE Activation assays, supra, with the exception that during the 1 hour incubation, 6× ionomycin solution [5 mM ionomycin (Sigma I-0634) in MeOH (stock) diluted 1:416.7 in MT buffer (2 μM final)] was prepared and cells were stimulated by adding 25 μl of the 6× ionomycin solution to the appropriate plates.

| SMILES | IC50 [1] [µM] | IC50 [2] [µM] |
| --- | --- | --- |
| O=C(OCCSc1ccc([N+](=O)[O-])cn1)c1cccc(Cl)c1 [Compound 5, 2-[(5-Nitro-2-pyridinyl)thio]ethyl-3-chlorobenzoate] | > 10 | > 10 |
| O=C(OCCS(=O)(=O)c1ccc([N+](=O)[O-])cn1)c1cccc(Cl)c1 [Compound 6, 2-[(5-Nitro-2-pyridinyl)sulfonyl]ethyl 3-chlorobenzoate] | < 10 | < 10 |
| O=C(OCCS(=O)(=O)c1ccc([N+](=O)[O-])cn1)c1ccc(Cl)cc1 [Compound 9, 2-[(5-Nitro-2-pyridinyl)sulfonyl]ethyl 4-chlorobenzoate] | < 10 | < 10 |
| O=C(OCCS(=O)(=O)c1ccc([N+](=O)[O-])cn1)c1cccc(C(F)(F)F)c1 [Compound 11, 2-[(5-Nitro-2-pyridinyl)sulfonyl]ethyl 3-trifluoromethylbenzoate] | < 10 | < 10 |
| O=C(OCCS(=O)(=O)c1ccc([N+](=O)[O-])cn1)c1ccccc1C(F)(F)F [Compound 12, 2-[(5-Nitro-2-pyridinyl)sulfonyl]ethyl-2-trifluoromethylbenzoate] | < 10 | < 10 |
| O=C(OCCS(=O)(=O)c1ccc([N+](=O)[O-])cn1)c1ccccc1 [Compound 13, 2[(5-Nitro-2-pyridinyl)sulfonyl]ethyl benzoate] | < 10 | < 10 |
| O=C(OCCS(=O)(=O)c1ccc([N+](=O)[O-])cn1)c1ccccc1F [Compound 14, 2-[(5-Nitro-2-pyridinyl)sulfonyl]ethyl 2-fluorobenzoate] | < 10 | < 10 |
| O=C(OCCS(=O)(=O)c1ccc([N+](=O)[O-])cn1)c1cccc(F)c1 [Compound 15, 2-[(5-Nitro-2-pyridinyl)sulfonyl]ethyl 3-fluorobenzoate] | < 10 | < 10 |
| O=C(OCCS(=O)(=O)c1ccc([N+](=O)[O-])cn1)c1ccc(F)cc1 [Compound 16, 2-[(5-Nitro-2-pyridinyl)sulfonyl]ethyl 4-fluorobenzoate] | < 10 | < 10 |
| CC(=O)OCCS(=O)(=O)c1ccc([N+](=O)[O-])cn1 [Compound 17, 2-[(5-Nitro-2-pyridinyl)sulfonyl]ethyl acetate] | < 10 | < 10 |
| CCC(=O)OCCS(=O)(=O)c1ccc([N+](=O)[O-])cn1 [Compound 18, 2-[(5-Nitro-2-pyridinyl)sulfonyl]ethyl propionate] | < 10 | < 10 |
| O=C(OCCS(=O)(=O)c1ccc([N+](=O)[O-])cn1)c1cccc(OC(F)(F)F)c1 [Compound 19, 2-[(5-Nitro-2-pyridinyl)sulfonyl]ethyl 3-trifluoromethoxybenzoate] | < 10 | < 10 |
| O=C(OCCS(=O)(=O)c1ccc(C(F)(F)F)cn1)c1cccc(Cl)c1 [Compound 21, 2-[(5-Trifluoromethyl-2-pyridinyl)-2-sulfonyl]ethyl 3-chlorobenzoate] | < 10 | < 10 |
| CC(=O)NCCS(=O)(=O)c1ccc([N+](=O)[O-])cn1 [Compound 40] | < 10 | < 10 |
| CC(C)(C)OC(=O)NCCS(=O)(=O)c1ccc([N+](=O)[O-])cn1 [Compound 41, 2-[(2-{N-tert-Butoxycarbonylamino}ethyl)sulfonyl]-5-nitropyridine] | < 10 | < 10 |
| O=C(NCCS(=O)(=O)c1ccc([N+](=O)[O-])cn1)c1cccc(Cl)c1 [Compound 42, 3-Chloro-N-[2-({5-nitro-2-pyridinyl}sulfonyl)ethyl]benzamide] | < 10 | < 10 |
| O=C(OCC[S+]([O-])c1ccc([N+](=O)[O-])cn1)c1cccc(Cl)c1 (centres unmarked) [Compound 50, 2-[(5-nitro-2-pyridinyl)sulfinyl]ethyl-3-chlorobenzoate] | < 10 | < 10 |
| O=C(Nc1ccccc1)Nc1ccc(S(=O)(=O)CCOC(=O)c2cccc(Cl)c2)nc1 [Compound 55, 2-[(5-{Phenylureido}-2-pyridinyl)sulfonyl]ethyl-3-chlorobenzoate] | > 10 | > 10 |
| CCNC(=O)Nc1ccc(S(=O)(=O)CCOC(=O)c2cccc(Cl)c2)nc1 [Compound 56, 2-[(5-{Ethylureido}-2-pyridinyl)sulfonyl]ethyl-3-chlorobenzoate] | > 10 | > 10 |
| O=C(Nc1ccc(OC(F)(F)F)cc1)Nc1ccc(S(=O)(=O)CCOC(=O)c2cccc(Cl)c2)nc1 [Compound 57, 2-[(5-{4-Trifluoromethoxyphenylureido}-2-pyridinyl)sulfonyl]ethyl-3-chlorobenzoate] | < 10 | < 10 |
| O=C(OCCS(=O)(=O)c1ccc(N2C(=O)c3ccccc3C2=O)cn1)c1cccc(Cl)c1 [Compound 66, [(5-{1,3-Dihydro-1,3-dioxo-2H-isoindol-2-yl}-2-pyridinyl)sulfonyl]ethyl 3-chlorobenzoate] | < 10 | < 10 |
| O=C(OCCS(=O)(=O)c1ccc(N2C(=O)CCC2=O)cn1)c1cccc(Cl)c1 [Compound 67, [(5-{2,5-Dioxotetrahydro-1H-pyrrol-1-yl}-2-pyridinyl)sulfonyl]ethyl 3-chlorobenzoate] | > 10 | > 10 |
